{"source": "patent US20210378193A1", "about": "“HAPLOID EMBRYOGENESIS” (STICHTING WAGENINGEN RESEARCH, priority 2013, published 2021)", "system": "B. napus DH12075 microspore culture", "experiment": "sporophytic cell division in B. napus DH12075 microspore culture (DAPI staining)", "assay_type": "cell-based, Brassica napus", "protocol": "Brassica napus L. DH12075 was used as a donor plant for microspore embryo culture. The B. napus plant growth and microspore isolation procedures were performed as described in Custers, J. B. M. (2003) “Microspore culture in rapeseed (Brassica napus L.)” in Doubled haploid production in crop plants: a manual, M. Maluszynski, K. J. Kasha, B. P. Forster, and I. Szarejko, eds (Dordrecht: Kluwer Academic Publishers), pp. 185-193. Flower buds for microspore culture were grouped by size (measured from the tip of the flower bud to the bottom of the sepal), ranging from 3.0 to 3.5 mm for DH4079 and from 2.6 to 4.0 mm for DH12075. The microspores were isolated and cultured in NLN-13 medium (see Lichter, R. (1982) […]. For induction of embryogenesis, microspores were cultured in the dark at 33° C. for 20 hours and subsequently transferred to 25° C. Non-induced microspore cultures were cultured continuously at 25° C. or 18° C. Trichostatin A (TSA, Sigma-Aldrich) was prepared in DMSO. Freshly isolated microspores were inoculated in a medium containing TSA or the same volume of DMSO as a control and cultured for 20 hours at the temperature indicated for each experiment. After this period, the cultures were centrifuged at 200 g for 3 min, resuspended in fresh NLN-13 medium without TSA, and transferred to 25° C.\nThe developmental stage and identity of cells in microspore and anther culture were visualized with the nuclear stain 4′, 6-diamidino-2-phenylindole (DAPI, 1.25 μg/ml according to Custers (2003) supra using a Zeiss Axioskop epifluorescence microscope with a filter set no. 02. Approximately two hundred microspores or multicellular clusters were counted for each sample. GFP was imaged using confocal laser scanning microscopy (CLSM; Leica DM5500 Q). The GFP was excited with an argon laser line at 488 nm and detected with a 505-530 nm emission filter. Samples were counterstained with DAPI or propidium iodide (10 mg/ml; Sigma-Aldrich). Propidium iodide and red autofluorescence were excited at 532 nm and detected with a 620-660 nm emission filter. GFP and DAPI were covisualized with CLSM. For CLSM, DAPI was excited at 405 nm and detected with a 440-500 nm emission filter. The optical slices were median filtered with Leica LAS AF software. Arabidopsis anthers were cleared in HCG solution (water: Chloral hydrate: glycerol; 3:8:1) for 10 min, then observed under DIC microscopy with a Nikon OPTIPHOT microscope.\nCultured microspores and pollen of B. napus genotype DH12075 were treated with the HDAC inhibitor TSA. We examined the development of microspore cultures by staining heat-stressed (hereafter referred to as control) and heat-stressed plus TSA-treated immature male gametophytes at different developmental stages with the nuclear dye, DAPI. Initial dosage experiments were used to establish the minimal exposure time (20 h) in relation to the specific phenotypes discussed below.\nThe developmental fate of heat-stressed control cultures and cultures exposed to both heat-stress and TSA was followed by examining older cultures in more detail. […] Heat-stressed microspores and pollen were treated with a range of TSA concentrations, and the cultures examined after five and 15 days using DAPI staining to characterize the different multicellular structures that developed."}
{"smiles": "CC(/C=C/C(=O)NO)=C\\[C@@H](C)C(=O)c1ccc(N(C)C)cc1", "note": "[TSA, trichostatin A]", "values": [{"measurement": "effect of duration of TSA treatment on proportion of sporophytic divisions", "setting": "0.5 μM TSA, 33° C., treatment longer than 20 hours, counted after five days", "value": "did not further enhance or reduce"}, {"measurement": "proportion of the population dividing sporophytically", "setting": "heat stress plus 0.5 μM TSA, after two days of culture", "value": "up to 80%"}, {"measurement": "sporophytically-divided cells also containing one or more generative-like nuclei", "setting": "heat stress plus 0.5 μM TSA, two days of culture", "value": "approximately 10%"}, {"measurement": "Type IV (loose callus-like) structures", "setting": "heat-stress and TSA, five-day-old cultures, control 0.5%", "value": "up to 32%"}, {"measurement": "Type II (compact callus-like) structures", "setting": "heat-stress and TSA, five-day-old cultures, control 7%", "value": "up to 77%"}, {"measurement": "Type I classical embryogenic structures", "setting": "heat-stress, 0.5 μM TSA, five days, control 0.5%", "value": "up to 1%"}, {"measurement": "Type I classical embryogenic structures, abundance", "setting": "heat-stress, ten times lower concentration of TSA than 0.5 μM", "value": "much more abundant"}, {"measurement": "percentage of sporophytic divisions versus control at lower temperature", "setting": "microspore cultures at 18 or 25° C.", "value": "increased percentage of sporophytic divisions"}]}
